The values that follow come from patent US10953037B2, “Chondroitin sulfate derivative and agent for treating bladder diseases” (priority 2015, dated 2021).

Read-outs that look alike come from different tables or passages of the source.

Test [1] has as its system hydrochloric acid-induced micturition model rats. Particulars: […] (w/v %), 0.2 mL single intravesical administration two days after HCl, cystometry seven days after HCl, vs. control (saline); for Intercontraction interval: FIG. 2. The procedure:
Chondroitin sulfate derivatives prepared in compliance with the methods of Examples 3, 4 and 5 were dissolved in phosphate-buffered saline to prepare the test substances indicated below.
(§1) Two days after continuous instillation of hydrochloric acid, 0.2 mL of each test substance were administered transurethrally using a catheter (PE50) and retained in the bladder for 30 minutes under anesthesia.
Intercontraction interval and single voided volume were measured after changes in intravesical pressure had stabilized.

For test [2] the test system is unchanged. Kind of test: Test Example B3: urinary function, rat hydrochloric acid-induced micturition model (comparison of conjugates and mixture). Type of test: in vivo. The note with it: 3% (w/v %) conjugate or mixture of 3% CS+[…] BTM, 0.2 mL single intravesical administration, cystometry seven days after HCl, vs. control. As for the experimental part:
A chondroitin sulfate derivative prepared in compliance with the method of Example 2 was dissolved in phosphate-buffered saline to prepare the test substances indicated below.
as §1

Test [3] has the same test system. Nature of the test: Test Example B1: urinary function, rat hydrochloric acid-induced micturition model (steroid comparison). Particulars: […] (w/v %), 0.2 mL single intravesical administration two days after HCl, cystometry seven days after HCl, vs. control (saline); for Intercontraction interval: FIG. 1.

With “CS introduced with 21-Glycyl-Triamcinolone Acetonide [CS-Gly-TA]”, in test [1], the Single voided volume entry is given as “significant increase in single voided volume” and the Intercontraction interval entry is reported as “significantly increased intercontraction interval”.
For “CS introduced with 21-Isoleucyl-Triamcinolone Acetonide [CS-Ile-TA]” the same measures were “significant increase in single voided volume” and “significantly increased intercontraction interval”.
On to “CS introduced with 21-β-Alanyl-Betamethasone [CS-βAla-BTM]”, for which the Single voided volume entry in test [2] and in test [3] was “significant increase in single voided volume” each time. The Intercontraction interval result in test [2] (FIG. 4) and in test [3] was “significantly increased intercontraction interval” each time.
For “CS introduced with 21-β-Alanyl-Prednisolone [CS-βAla-PRED]”, in test [3], the Single voided volume result is listed as “significant increase in single voided volume” and the Intercontraction interval result was “significantly increased intercontraction interval”.
Regarding “CS introduced with 21-β-Alanyl-Triamcinolone Acetonide [CS-βAla-TA]”, in test [1], the Single voided volume result is on record as “significant increase in single voided volume” and the Intercontraction interval entry was “significantly increased intercontraction interval”. Also, in test [3], the Single voided volume result was “significant increase in single voided volume” and the Intercontraction interval entry is “significantly increased intercontraction interval”.
